# Measurements reported in patent US6534652B2, “Intermediates for the preparation of substituted 1,2,3,4-tetrahydronaphthalene derivatives” (AstraZeneca AB, priority 1997, dated 2003).
row,Compound,melting point
1,"CCCCOc1ccc(C(=O)N[C@@H]2CCc3c(O)ccc(N4CCN(C)CC4)c3C2)cc1 [Example 11, (R)-N-[5-Hydroxy-8-(4-methylpiperazin-1-yl)-1,2,3,4-tetrahydro-2-naphthyl]-4-butoxybenzamide]",125 °C (dec.)
2,"O=C(N[C@@H]1CCc2c(Br)ccc(N3CCNCC3)c2C1)c1ccc(N2CCOCC2)cc1 [Example 17, (R)-N-[5-Bromo-8-(piperazin-1-yl)-1,2,3,4-tetrahydro-2-naphthyl]-4-morpholinobenzamide]",228 to 229 °C
3,"CN1CCN(c2ccc(Br)c3c2C[C@H](NC(=O)c2ccc(N4CCOCC4)cc2)CC3)CC1 [Example 20, (R)-N-[5-Bromo-8-(4-methylpiperazin-1-yl)-1,2,3,4-tetrahydro-2-naphthyl]-4-morpholinobenzamide]",245 to 246 °C
4,"COc1ccc(N2CCN(C)CC2)c2c1CC[C@@H](NC(=O)c1ccc(N3CCOCC3)cc1)C2 [Example 25, (R)-N-[5-Methoxy-8-(4-methylpiperazin-1-yl)-1,2,3,4-tetrahydro-2-naphthyl]-4-morpholinobenzamide]",237 to 238 °C
5,"CN1CCN(c2ccc(O)c3c2C[C@H](NC(=O)c2ccc(C#N)cc2)CC3)CC1 [Example 26, (R)-N-[5-Hydroxy-8-(4-methylpiperazin-1-yl)-1,2,3,4-tetrahydro-2-naphthyl]-4-cyanobenzamide]",144 °C
6,"COc1ccc(N2CCN(C)CC2)c2c1CC[C@@H](NC(=O)c1ccc(C(=O)N3CCOCC3)cc1)C2 [Example 27, (R)-N-[5-Methoxy-8-(4-methylpiperazin-1-yl)-1,2,3,4-tetrahydro-2-naphthyl]-4-morpholinocarbonylbenzamide]",209 to 210 °C
7,"CN1CCN(c2ccc(Br)c3c2C[C@H](NC(=O)c2ccc(C(=O)N4CCOCC4)cc2)CC3)CC1 [Example 28, (R)-N-[5-Bromo-8-(4-methylpiperazin-1-yl)-1,2,3,4-tetrahydro-2-naphthyl]-4-morpholinocarbonylbenzamide]",228 to 230 °C
8,"COc1ccc(C2CCN(C)CC2)c2c1CC[C@@H](NC(=O)c1ccc(N3CCOCC3)cc1)C2 [Example 38, (R)-N-[5-Methoxy-8-(1-methylpiperidin-4-yl)-1,2,3,4-tetrahydro-2-naphthyl]-4-morpholinobenzamide]",237 to 242 °C (dec.)
9,"CCc1ccc(N2CCN(C)CC2)c2c1CC[C@@H](NC(=O)c1ccc(N3CCOCC3)cc1)C2 [Example 42, (R)-N-[5-Ethyl-8-(4-methylpiperazin-1-yl)-1,2,3,4-tetrahydro-2-naphthyl]-4-morpholinobenzamide]",234 °C (dec.)
10,"CN1CCN(c2ccc(OC(F)F)c3c2C[C@H](NC(=O)c2ccc(N4CCOCC4)cc2)CC3)CC1 [Example 46, (R)-N-[5-Difluoromethoxy-8-(4-methylpiperazin-1-yl)-1,2,3,4-tetrahydro-2-naphthyl]-4-morpholinobenzamide]",222 to 223 °C
11,"CN1CCN(c2ccc(Br)c3c2C[C@H](NC(=O)c2ccc(C(F)(F)F)cc2)CC3)CC1 [Example 48, (R)-N-[5-Bromo-8-(4-methylpiperazin-1-yl)-1,2,3,4-tetrahydro-2-naphthyl]-4-trifluoromethylbenzamide]",229 to 230 °C
12,"COCc1ccc(N2CCN(C)CC2)c2c1CC[C@@H](NC(=O)c1ccc(N3CCOCC3)cc1)C2 [Example 51, (R)-N-[5-Methoxymethyl-8-(4-methylpiperazin-1-yl)-1,2,3,4-tetrahydro-2-naphthyl]-4-morpholinobenzamide]",200 °C (dec.)
13,"CN1CCN(c2ccc(O)c3c2C[C@H](NC(=O)c2ccc(N4CCOCC4)cc2)CC3)CC1 [Example 60, (R)-N-[5-Hydroxy-8-(4-methylpiperazin-1-yl)-1,2,3,4-tetrahydro-2-naphthyl]-4-morpholinobenzamide]",84 to 88 °C
14,"Cc1ccc(N2CCNCC2)c2c1CC[C@@H](NC(=O)c1ccc(N3CCOCC3)cc1)C2 [Example 67, (R)-N-[5-Methyl-8-(piperazin-1-yl)-1,2,3,4-tetrahydro-2-naphthyl]-4-morpholinobenzamide]",207 to 210 °C
15,"Cc1ccc(N2CCN(C)CC2)c2c1CC[C@@H](NC(=O)c1ccc(Cl)cc1)C2 [Example 68, (R)-N-[5-Methyl-8-(4-methylpiperazin-1-yl)-1,2,3,4-tetrahydro-2-naphthyl]-4-chlorobenzamide]",210 to 212 °C
